Patent US12466835B1, “Solid forms of macrocyclic compounds, salts and formulations thereof, and methods of preparing and using the same” (Kura Oncology, Inc., priority 2023, dated 2025)
In brackets after ≈: the same amount, converted by molar mass.

Columns and labels:
Type in all cases: physicochemical
[1] = Solubility testing of solid forms in water, SGF, FaSSIF and FeSSIF media
Experimental: About 15 mg of test material was weighed into a sample vial and then 3.0 mL of water, simulated gastric fluid (SGF), fasted state simulated intestinali fluid (FaSSIF), or fed state simulated intestinal fluid (FeSSIF) media was added. The resulting suspensions were shaken at 37° C. for up to 24 hours. At 0.5, 2, and 24 hours, suspensions were filtered, and test material concentrations in the filtrates were analyzed by HPLC. Residual solids were collected for analysis.

[2] = Stability testing of blended samples exposed to high temperature and/or humidity for four weeks
Description: Compound 1, microcrystalline cellulose, D-mannitol, croscarmellose sodium, and magnesium stearate were blended using standard methods. Results from stability testing from exposure of blended samples to high temperature and/or humidity for four weeks are provided in Table 8.

[3] = Four-week excipient compatibility study under accelerated stress conditions; settings: four weeks, 40° C./75% relative humidity and 60° C. accelerated stress conditions
[4] = Powder properties of Form 1 (bulk density, flowability)
Description: Use of a glidant, disintegrant, and lubricant allowed for acceptable tableting and disintegration characteristics.

[5] = FaSSIF, pH of media 6.5, 37° C.
[6] = FeSSIF, pH of media 5.0, 37° C.
[7] = FaSSIF, pH of media 6.5, 37° C., listed as Free base (Form 1)
[8] = FeSSIF, pH of media 5.0, 37° C., listed as Free base (Form 1)
[9] = SGF, pH of media 1.2, 37° C., listed as Free base (Form 1)
[10] = Water, 37° C., listed as Free base (Form 1)
[11] = FaSSIF, pH of media 6.5, 37° C., listed as Fumarate (Form 8)
[12] = FeSSIF, pH of media 5.0, 37° C., listed as Fumarate (Form 8)
[13] = SGF, pH of media 1.2, 37° C., listed as Fumarate (Form 8)
[14] = Water, 37° C., listed as Fumarate (Form 8)
[15] = SGF, pH of media 1.2, 37° C., listed as 1-Hydroxy-2-naphthoate (Form 13)
[16] = Water, 37° C., listed as 1-Hydroxy-2-naphthoate (Form 13)

In the case of `Cn1cncc1[C@@]1(N)c2ccc(C#N)c(c2)COc2cccc(c2)-c2cc(C#N)nc3ccc1cc23` [Amorphous free base, (S)-3-amino-3-(1-methyl-1H-imidazol-5-yl)-6-oxa-2(4,6)-quinolina-1,4(1,3)-dibenzenacyclohexaphane-2^2,4^4-dicarbonitrile], the “Solubility (mg/mL) 2 h” value [1, 5] was 0.085 mg/mL (≈ 181 µM), the “Solubility (mg/mL) 24 h” value [1, 5] was 0.09 mg/mL (≈ 192 µM) and the “Solubility (mg/mL) 2 h” value [1, 6] was 1.22 mg/mL (≈ 2600 µM). For the same compound, the “Solubility (mg/mL) 24 h” value [1, 6] was 1.29 mg/mL (≈ 2750 µM), the “Solubility (mg/mL) 2 h” value ([1]; SGF, pH of media 1.2, 37° C.) was roughly 5 mg/mL (≈ 10700 µM) and the “Solubility (mg/mL) 24 h” value ([1]; SGF, pH of media 1.2, 37° C.) was roughly 5 mg/mL (≈ 10700 µM). For the same compound, the “Solubility (mg/mL) 2 h” value ([1]; Water, 37° C.) was 0.002 mg/mL (≈ 4.27 µM) and the “Solubility (mg/mL) 24 h” value ([1]; Water, 37° C.) was 0.0009 mg/mL (≈ 1.92 µM).

For `Cn1cncc1[C@@]1(N)c2ccc(C#N)c(c2)COc2cccc(c2)-c2cc(C#N)nc3ccc1cc23` [Compound 1, (S)-3-amino-3-(1-methyl-1H-imidazol-5-yl)-6-oxa-2(4,6)-quinolina-1,4(1,3)-dibenzenacyclohexaphane-2^2,4^4-dicarbonitrile], the “% Purity 60° C.” value [2] was 99.35% and the “Compatibility with Tablet Formulation 1 excipients” value [3] was “no incompatibility”.

For `Cn1cncc1[C@@]1(N)c2ccc(C#N)c(c2)COc2cccc(c2)-c2cc(C#N)nc3ccc1cc23` [Form 1, (S)-3-amino-3-(1-methyl-1H-imidazol-5-yl)-6-oxa-2(4,6)-quinolina-1,4(1,3)-dibenzenacyclohexaphane-2^2,4^4-dicarbonitrile], the “Solubility (mg/mL) 2 h” value [1, 7] was 0.0066 mg/mL (≈ 14.1 µM), the “Solubility (mg/mL) 24 h” value [1, 7] was 0.011 mg/mL (≈ 23.5 µM) and the “Solubility (mg/mL) 2 h” value [1, 6] was roughly 0.31 mg/mL (≈ 662 µM). For the same compound, the “Solubility (mg/mL) 2 h” value [1, 8] was 0.31 mg/mL (≈ 662 µM), the “Solubility (mg/mL) 24 h” value [1, 6] was roughly 0.33 mg/mL (≈ 704 µM) and the “Solubility (mg/mL) 24 h” value [1, 8] was 0.33 mg/mL (≈ 704 µM). The “Solubility (mg/mL) 2 h” value ([1]; SGF, pH of media 1.2, 37° C.) was roughly 5.04 mg/mL (≈ 10800 µM), the “Solubility (mg/mL) 2 h” value [1, 9] was 5.04 mg/mL (≈ 10800 µM) and the “Solubility (mg/mL) 24 h” value ([1]; SGF, pH of media 1.2, 37° C.) was roughly 3.67 mg/mL (≈ 7830 µM). The “Solubility (mg/mL) 24 h” value [1, 9] was 3.67 mg/mL (≈ 7830 µM), the “Solubility (mg/mL) 2 h” value [1, 10] was “<LOD” and the “Solubility (mg/mL) 24 h” value [1, 10] was “<LOD”. The bulk density [4] was “about 0.2 g/mL”.

With `Cn1cncc1[C@@]1(N)c2ccc(C#N)c(c2)COc2cccc(c2)-c2cc(C#N)nc3ccc1cc23` [Form 8, (S)-3-amino-3-(1-methyl-1H-imidazol-5-yl)-6-oxa-2(4,6)-quinolina-1,4(1,3)-dibenzenacyclohexaphane-2^2,4^4-dicarbonitrile] the “Solubility (mg/mL) 2 h” value [1, 11] was 0.16 mg/mL (≈ 342 µM), the “Solubility (mg/mL) 24 h” value [1, 11] was 0.45 mg/mL (≈ 960 µM) and the “Solubility (mg/mL) 2 h” value [1, 6] was roughly 1.26 mg/mL (≈ 2690 µM). For the same compound, the “Solubility (mg/mL) 2 h” value [1, 12] was 1.26 mg/mL (≈ 2690 µM), the “Solubility (mg/mL) 24 h” value [1, 6] was roughly 1.15 mg/mL (≈ 2450 µM) and the “Solubility (mg/mL) 24 h” value [1, 12] was 1.15 mg/mL (≈ 2450 µM). For the same compound, the “Solubility (mg/mL) 2 h” value ([1]; SGF, pH of media 1.2, 37° C.) was no less than 5 mg/mL, the “Solubility (mg/mL) 2 h” value [1, 13] was roughly 5 mg/mL (≈ 10700 µM) and the “Solubility (mg/mL) 24 h” value ([1]; SGF, pH of media 1.2, 37° C.) was no less than 5 mg/mL. The “Solubility (mg/mL) 24 h” value [1, 13] was roughly 5 mg/mL (≈ 10700 µM), the “Solubility (mg/mL) 2 h” value [1, 14] was 0.43 mg/mL (≈ 918 µM) and the “Solubility (mg/mL) 24 h” value [1, 14] was 0.34 mg/mL (≈ 726 µM).

In the case of `Cn1cncc1[C@@]1(N)c2ccc(C#N)c(c2)COc2cccc(c2)-c2cc(C#N)nc3ccc1cc23` [Form 13, (S)-3-amino-3-(1-methyl-1H-imidazol-5-yl)-6-oxa-2(4,6)-quinolina-1,4(1,3)-dibenzenacyclohexaphane-2^2,4^4-dicarbonitrile], the “Solubility (mg/mL) 2 h” value ([1]; FaSSIF, pH of media 6.5, 37° C., listed as 1-Hydroxy-2-naphthoate (Form 13)) was 0.086 mg/mL (≈ 184 µM), the “Solubility (mg/mL) 2 h” value [1, 6] was roughly 0.82 mg/mL (≈ 1750 µM) and the “Solubility (mg/mL) 2 h” value ([1]; FeSSIF, pH of media 5.0, 37° C., listed as 1-Hydroxy-2-naphthoate (Form 13)) was 0.82 mg/mL (≈ 1750 µM). For the same compound, the “Solubility (mg/mL) 2 h” value ([1]; SGF, pH of media 1.2, 37° C.) was roughly 4.05 mg/mL (≈ 8640 µM), the “Solubility (mg/mL) 2 h” value [1, 15] was 4.05 mg/mL (≈ 8640 µM) and the “Solubility (mg/mL) 24 h” value ([1]; SGF, pH of media 1.2, 37° C.) was roughly 4.12 mg/mL (≈ 8790 µM). The “Solubility (mg/mL) 24 h” value [1, 15] was 4.12 mg/mL (≈ 8790 µM), the “Solubility (mg/mL) 2 h” value [1, 16] was 0.020 mg/mL (≈ 42.7 µM) and the “Solubility (mg/mL) 24 h” value [1, 16] was 0.013 mg/mL (≈ 27.7 µM).
